Data reported in EP3035931B1, “COMPOSITION FOR REDUCING NERVOUS SYSTEM INJURY AND METHOD OF MAKING AND USE THEREOF” (Morehouse School of Medicine, priority 2013, dated 2015).

Assays:
ASICs = molecular target: T1, ASICs (Mus musculus, UniProt Q6NXK8); type: cell-based; details: 100 µM amiloride; pH 6.0; n=6
T1 construct: endogenous in cells; host or cells: primary cortical neurons from E16 Swiss mice
T1 sequence (Q6NXK8 1-526): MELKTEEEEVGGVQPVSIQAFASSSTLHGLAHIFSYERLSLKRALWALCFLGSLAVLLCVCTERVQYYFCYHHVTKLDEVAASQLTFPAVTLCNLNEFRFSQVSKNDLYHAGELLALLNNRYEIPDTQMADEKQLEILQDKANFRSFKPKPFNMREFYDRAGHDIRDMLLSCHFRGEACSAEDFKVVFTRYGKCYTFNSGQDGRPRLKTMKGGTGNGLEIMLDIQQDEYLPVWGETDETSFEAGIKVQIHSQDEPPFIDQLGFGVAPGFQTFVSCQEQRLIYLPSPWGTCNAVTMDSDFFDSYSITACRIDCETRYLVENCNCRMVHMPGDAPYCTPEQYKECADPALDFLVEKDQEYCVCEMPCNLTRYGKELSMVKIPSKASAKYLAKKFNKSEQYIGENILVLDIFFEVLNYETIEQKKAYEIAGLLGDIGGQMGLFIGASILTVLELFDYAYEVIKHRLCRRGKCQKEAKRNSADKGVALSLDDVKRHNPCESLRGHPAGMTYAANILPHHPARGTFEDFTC

cortical neurons [1] = assay: Fura-2 Ca^2+ imaging of acid-induced increase of [Ca^2+]i in cortical neurons; type: cell-based, mouse; details: pH drop to 6.0; blockers of glutamate receptors and voltage-gated Ca^2+ channels present; n=6-8
cortical neurons [2] = type: cell-based, mouse
Procedure: (§1) Background absorbance at 620 was subtracted.
Acid-induced injury was studied on neurons grown on 24-well plates incubated in either pH 7.4 or 6.0 ECF containing MK801, CNQX, and nimodipine; see FIG. 8. Cell injury was assayed by the measurement of lactate dehydrogenase (LDH) release (Koh and Choi, J. Neurosci., 1987, 20:83-90) at various time points (FIGS. 8A and 8B) and by fluorescent staining of alive/dead cells. Compared to neurons treated at pH 7.4, 1 hr acid incubation (pH 6.0) induced a time-dependent increase in LDH release (FIG. 8A). After 24 hr, 45.7% ± 5.4% of maximal LDH release was induced (n=25 wells). Continuous treatment at pH 6.0 induced greater cell injury (FIG. 8B, n=20).

ASIC1^-/- neurons = type: cell-based, mouse; details: ASIC1^-/- neurons; n=8 each
Procedure: Following anesthesia with halothane, cerebral cortices were dissected from E16 Swiss mice or P1 ASIC1+/+ and ASIC1-/- mice and incubated with 0.05% trypsin-EDTA for 10 min at 37° C. Tissues were then triturated with fire-polished glass pipettes and plated on poly-L-ornithine-coated 24-well plates or 25x25 mm glass coverslips at a density of 2.5x10^5 cells per well or 10^6 cells per coverslip. Neurons were cultured with MEM supplemented with 10% horse serum (for E16 cultures) or Neurobasal medium supplemented with B27 (for PI cultures) and used for electrophysiology and toxicity studies after 12 days. Glial growth was suppressed by addition of 5-fluoro-2-deoxyuridine and uridine, yielding cultured cells with 90% neurons as determined by NeuN and GFAP staining (data not shown).
as §1
. […] . In contrast to acid incubation, 1 hr treatment of ASIC1^-/- neurons with 1 mM NMDA+10 µM glycine (in Mg^2+-free [pH 7.4] ECF) induced 84.8% ± 1.4% of maximal LDH release at 24 hr (n=4, FIG. 9C), indicating normal response to other cell injury processes.

TRPM7 channels = TRPM7 channels (Homo sapiens, UniProt Q96QT4); assay: Conductance of TRPM7 channels; type: cell-based
TRPM7 channels, sequence (Q96QT4 whole entry): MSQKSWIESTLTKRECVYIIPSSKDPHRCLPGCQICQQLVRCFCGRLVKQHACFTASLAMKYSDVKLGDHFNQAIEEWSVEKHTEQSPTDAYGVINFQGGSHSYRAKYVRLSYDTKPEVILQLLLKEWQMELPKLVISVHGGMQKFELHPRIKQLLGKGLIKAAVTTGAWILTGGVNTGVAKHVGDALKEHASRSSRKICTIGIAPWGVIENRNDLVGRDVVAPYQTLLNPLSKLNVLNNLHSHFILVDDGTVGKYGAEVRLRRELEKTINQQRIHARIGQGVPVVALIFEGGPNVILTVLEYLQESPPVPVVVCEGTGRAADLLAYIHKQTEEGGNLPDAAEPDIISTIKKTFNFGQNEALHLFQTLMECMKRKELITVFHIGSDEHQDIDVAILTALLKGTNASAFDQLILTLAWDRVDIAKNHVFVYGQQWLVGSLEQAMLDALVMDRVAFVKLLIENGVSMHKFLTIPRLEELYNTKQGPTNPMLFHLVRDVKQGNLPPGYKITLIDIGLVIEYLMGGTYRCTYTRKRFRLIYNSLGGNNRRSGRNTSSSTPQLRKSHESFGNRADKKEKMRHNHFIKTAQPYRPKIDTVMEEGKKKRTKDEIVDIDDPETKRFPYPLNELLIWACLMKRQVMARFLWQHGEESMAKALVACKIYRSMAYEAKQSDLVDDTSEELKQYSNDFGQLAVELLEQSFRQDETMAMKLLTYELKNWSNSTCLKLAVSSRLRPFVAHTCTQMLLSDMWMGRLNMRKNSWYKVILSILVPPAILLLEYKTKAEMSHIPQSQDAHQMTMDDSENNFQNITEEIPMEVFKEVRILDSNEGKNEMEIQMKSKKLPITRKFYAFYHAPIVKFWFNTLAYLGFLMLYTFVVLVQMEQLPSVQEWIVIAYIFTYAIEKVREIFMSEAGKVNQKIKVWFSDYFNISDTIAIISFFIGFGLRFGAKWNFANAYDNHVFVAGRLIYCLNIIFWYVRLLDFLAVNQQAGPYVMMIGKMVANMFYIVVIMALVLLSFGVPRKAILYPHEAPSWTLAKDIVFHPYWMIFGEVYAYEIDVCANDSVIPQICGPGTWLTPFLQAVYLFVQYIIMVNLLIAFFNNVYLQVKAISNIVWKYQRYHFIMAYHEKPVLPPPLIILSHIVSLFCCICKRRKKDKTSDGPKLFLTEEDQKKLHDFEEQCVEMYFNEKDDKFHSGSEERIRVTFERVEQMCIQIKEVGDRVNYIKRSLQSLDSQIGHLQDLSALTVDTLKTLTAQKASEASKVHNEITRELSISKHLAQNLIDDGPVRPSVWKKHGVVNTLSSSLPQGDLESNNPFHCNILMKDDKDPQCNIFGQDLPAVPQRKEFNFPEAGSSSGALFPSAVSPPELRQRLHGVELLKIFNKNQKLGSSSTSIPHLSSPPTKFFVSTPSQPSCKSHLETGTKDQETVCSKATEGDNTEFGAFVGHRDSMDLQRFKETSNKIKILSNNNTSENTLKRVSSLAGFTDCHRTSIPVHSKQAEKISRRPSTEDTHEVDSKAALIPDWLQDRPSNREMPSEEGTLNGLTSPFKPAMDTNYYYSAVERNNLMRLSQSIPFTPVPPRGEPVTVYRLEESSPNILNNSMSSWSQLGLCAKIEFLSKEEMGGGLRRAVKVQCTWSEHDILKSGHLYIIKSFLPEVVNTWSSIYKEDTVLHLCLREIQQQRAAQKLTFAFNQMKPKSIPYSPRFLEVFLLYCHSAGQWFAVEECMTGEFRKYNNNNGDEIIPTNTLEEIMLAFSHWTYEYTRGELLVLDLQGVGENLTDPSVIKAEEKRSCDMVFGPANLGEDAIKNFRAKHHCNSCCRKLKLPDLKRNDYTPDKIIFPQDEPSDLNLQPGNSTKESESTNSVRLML

[3] = Efficacious plasma and brain concentration in mice; type: in vivo
Source text: It is thus estimated that only a 10-fold increase in potency is necessary to achieve efficacious concentrations that are suitable for an acute therapeutic for stroke in humans. […]

ASIC1a = molecular target: T2, ASIC1a (Homo sapiens, UniProt P78348); assay: Blockade of ASIC 1a current expressed in CHO cells; type: cell-based; design: expressed in transfected cells; host or cells: CHO; details: CHO cells, FIG. 16
T2 sequence (P78348 1-528): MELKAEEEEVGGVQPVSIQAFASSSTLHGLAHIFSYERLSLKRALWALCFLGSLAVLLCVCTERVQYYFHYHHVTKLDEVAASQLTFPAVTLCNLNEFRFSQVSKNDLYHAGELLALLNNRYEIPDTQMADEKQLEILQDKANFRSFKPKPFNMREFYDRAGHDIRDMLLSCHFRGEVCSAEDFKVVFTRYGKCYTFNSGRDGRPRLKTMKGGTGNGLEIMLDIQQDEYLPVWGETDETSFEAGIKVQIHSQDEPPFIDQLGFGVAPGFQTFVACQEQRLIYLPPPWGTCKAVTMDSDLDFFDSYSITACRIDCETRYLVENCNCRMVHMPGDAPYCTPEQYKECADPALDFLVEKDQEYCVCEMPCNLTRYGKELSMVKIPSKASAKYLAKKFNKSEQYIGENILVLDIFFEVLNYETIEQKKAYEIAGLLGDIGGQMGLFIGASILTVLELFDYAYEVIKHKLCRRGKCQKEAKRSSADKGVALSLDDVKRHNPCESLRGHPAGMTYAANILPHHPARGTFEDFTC

[4] = test system: COS-7 cells stably transfected with ASIC1a; assay: Acid-induced LDH release in ASIC1a-transfected COS-7 cells; details: 100 µM; 1 hr pH 6.0, LDH 24 hr after acid incubation
[5] = Mouse 60 min MCAO, intracerebroventricular injection one hour after MCAO, infarct volume; details: mice, evaluated one day after ischemia induction, FIG. 18

N=C(N)NC(=O)c1nc(Cl)c(N)nc1N [amiloride]
peak amplitude of Ca^2+-mediated current, of control (ASICs): 26% ± 2% | peak and sustained increases in [Ca^2+]i (cortical neurons [1]): largely inhibited | LDH release at 24 hr (cortical neurons [2]; 100 µM amiloride 10 min before and during 1 hr pH 6.0 incubation, without blocker 45.3% ± 3.8%): 31.1% ± 2.5% | LDH release induced by 1 hr acid incubation of ASIC^+/+ neurons (cortical neurons [2]; pH 6.0, n=8-12): reduced | baseline LDH release (cortical neurons [2]; pH 7.4 ECF for 1 hr): did not affect | LDH release, prolonged incubation with amiloride alone (cortical neurons [2]; prolonged incubation (e.g., 5 hr), n=8): increased LDH release | effect on acid-induced LDH release after knockout of the ASIC1 gene (ASIC1^-/- neurons): eliminated the effect | conductance of TRPM7 channels (TRPM7 channels): no effect | total brain concentration at which efficacy can be achieved ([3]; icv dose of 1 µl x 500 µM): 12.5 µM | plasma concentration at which efficacy can be achieved ([3]; iv dose of 50 µl x 1mM): 32.5 µM | block of ASIC1a current (ASIC1a): dose-dependent | acid-induced LDH release [4]: inhibited | infarct volume [5]: effectively reduce infarct volume
